Data: patent US20030087774A1, “Fragrance compositions for the CO2 washing process” (priority 2001, published 2003)

Assay: CO2 wash test of model fragrance A on cotton fabric (supercritical fluid extractor, GC FID)
Type: physicochemical
Conditions: for fraction left on fabric: from the wash test of Table 2; for % Left on Fabric: supercritical CO2 43° C., 77 bar, density 0.25 g/ml, cotton fabric
Experimental: The device used for this experiment was an Hewlett Packard 7680T SFE Supercritical Fluid Extractor. 1 g of cotton fabric was put into a 7 ml Thimble. 0.01 grams of the model fragrance A was applied to the uppermost part of the fabric representing the earliest stage of the CO2 cleaning process.
The CO2 properties used were: density=0.25 g/ml, pressure=77 bar (Pc=73.8 bar), temperature=43° C. These were supercritical as the Critical Temperature for CO2 is 31.1° C.
CO2 was introduced into the thimble and allowed to soak for 2 min. The thimble was flushed with CO2 for 5 min at a flow rate of 2 ml/min. The CO2/fragrance mixture was carried into the trap where the CO2 was evaporated leaving the fragrance on the analytical trap packing being maintained at −30 deg C. The trap was rinsed with Acetone. The fragrance/acetone mixture was analyzed using gas chromatography with flame ionization detection (GC FID).
The results on the GC FID were used to calculate the % of each fragrance ingredient that was retained on the fabric. (90% means that 90% of the fragrance was substantive on the fabric).

Row | Compound | fraction left on fabric | % Left on Fabric [%]
1 | CC(C=O)Cc1ccc(C(C)(C)C)cc1 (centres unmarked) [Lilial] | 0.781 | 78
2 | CC(C)=CCC/C(C)=C/CO [Geraniol, Supra] | 0.769 | 77
3 | CC(=O)O[C@]1(C)CC[C@@]23C[C@@H]1C(C)(C)[C@@H]2CC[C@H]3C [Cedryl Acetate] | 0.834 | 83
4 | CC(=O)OCC=C(C)C [Prenyl acetate] | 0.969 | 97
5 | CC(=O)OCCc1ccccc1 [Phenyl Ethyl Acetate] | 0.698 | 70
6 | O=C1CCCCCCCCCCCC(=O)OCCO1 [Ethylene Brassylate] | 0.928 | 93
7 | OCCc1ccccc1 [Phenyl Ethyl Alcohol] |  | 83
8 | CC(=O)OCc1ccccc1 [Benzyl Acetate] | 0.799 | 80
9 | Terpineol, Pure | 0.691 | 69
10 | CC(=O)c1c(C)c([N+](=O)[O-])c(C(C)(C)C)c([N+](=O)[O-])c1C [Musk Ketone] | 0.905 | 91
11 | CCOC(=O)c1ccccc1C(=O)OCC [Diethyl Phthalate] | 0.807 | 81
12 | C=C1CCC2CC1C2(C)C (stereo not drawn) [Pinene, Beta, beta-Pinene] | 0.995 | 100
13 | CC(CC=O)CCCC(C)(C)O (centres unmarked) [Hydroxy Citronellal P] | 0.846 | 85
14 | C[C@@H]1CC[C@H]2C(C)(C)[C@H]3C[C@@]12CC[C@@]3(C)O [Cedrol] | 0.839 | 84
15 | CCCCCCC(C=O)=Cc1ccccc1 [Hexyl Cinnamic Aldehyde] | 0.863 | 86
16 | CC(=O)OC(C)(C)Cc1ccccc1 [Dimethyl Benzyl Carbinyl Acetate] | 0.689 | 69
17 | CC(=O)O[C@@H]1C[C@H]2CC[C@]1(C)C2(C)C (racemic) [Iso Bornyl Acetate] | 0.741 | 74
18 | C=C(C)[C@H]1CC=C(C)CC1 [Limonene D] | 0.977 | 98
19 | CC1=CCC2CC1C2(C)C (stereo not drawn) [Pinene, Alpha, alpha-Pinene] | 0.989 | 99
20 | C=CC(C)CCCC(C)(C)O (centres unmarked) [Dihydro Myrcenol] | 0.737 | 74
21 | O=c1ccc2ccccc2o1 [Coumarin] | 0.945 | 94
22 | O=C(OCc1ccccc1)c1ccccc1O [Benzyl Salicylate] | 0.908 | 91
23 | CCCCC/C(C=O)=C/c1ccccc1 [Amyl Cinnamic Aldehyde] | 0.83 | 85
24 | CC(=O)OC1CCC(C(C)(C)C)CC1 (centres unmarked) [Oryclon/Vertenex] | 0.687 | 69
25 | Methyl Ionone Gamma Coeur |  | 74
26 | C=CCc1ccc(O)c(OC)c1 [Eugenol] | 0.794 | 79
27 | CC(C)CCOC(=O)c1ccccc1O [Iso Amyl Salicylate] | 0.759 | 76
28 | CC(=O)/C=C/C1C(C)=CCCC1(C)C (stereo not drawn) [Ionone, Alpha] | 0.729 | 73
29 | CC(C)=CCCC(C)CCO (centres unmarked) [Gitronellol 950, Citronellol 950] | 0.763 | 76
